The text below walks through data of ChEMBL document CHEMBL5465560, “Selectivity Literature for EUbOPEN Chemogenomic Library” (2024).

Test [1] concerns EML4-ALK (Homo sapiens), Q9UM73+Q9HC35 [UNDEFINED MUTATION]. Kind of test: (§1) Selectivity interaction (ProQinase) EUB0000171b ALK. Format: protein assay. The note with it: at 5 µM.
For a further test, the target named is EML4-ALK (Homo sapiens) (UniProt Q9UM73+Q9HC35). The description is as §1. In kind it is protein assay.
Test [2] relates to NPM/ALK (Nucleophosmin/ALK tyrosine kinase receptor) (Homo sapiens), Q9UM73+P06748 [F1174L]. The test is described as §1. In kind it is protein assay.
Test [3] addresses Myosin light chain kinase 2, skeletal/cardiac muscle (Homo sapiens) (UniProt Q9H1R3). The note with it: at 10 µM.
Test [4] relates to Tyrosine-protein kinase ABL1 (Homo sapiens), P00519 [H396P]. To be noted: at 10 µM.
Test [5] concerns the target Receptor-interacting serine/threonine-protein kinase 2 (Homo sapiens, UniProt O43353). Kind of test: Selectivity interaction (KinomeScan (DiscoverX)) EUB0001079a RIPK2. To be noted: at 1 µM.
Test [6] has as its target T1, TGF-beta receptor type-1 (Homo sapiens) (UniProt P36897).
T1 sequence (whole entry): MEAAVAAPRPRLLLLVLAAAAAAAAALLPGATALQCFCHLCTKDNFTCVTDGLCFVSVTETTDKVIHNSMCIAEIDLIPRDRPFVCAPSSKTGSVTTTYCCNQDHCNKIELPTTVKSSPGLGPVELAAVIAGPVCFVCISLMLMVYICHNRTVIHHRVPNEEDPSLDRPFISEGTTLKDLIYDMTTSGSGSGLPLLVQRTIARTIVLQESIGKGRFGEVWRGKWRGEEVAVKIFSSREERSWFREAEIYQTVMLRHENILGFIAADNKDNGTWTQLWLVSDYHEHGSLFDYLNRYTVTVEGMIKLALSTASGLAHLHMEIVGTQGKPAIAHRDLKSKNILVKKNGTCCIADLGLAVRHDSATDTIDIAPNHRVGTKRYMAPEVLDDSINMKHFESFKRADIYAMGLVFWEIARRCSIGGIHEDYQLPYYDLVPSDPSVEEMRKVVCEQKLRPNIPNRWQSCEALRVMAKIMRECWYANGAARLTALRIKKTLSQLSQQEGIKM
Nature of the test: Selectivity interaction (KinomeScan (DiscoverX)) EUB0001049a TGFBR1. The note with it: at 1 µM.

The next test concerns the target Ephrin type-A receptor 4 (Homo sapiens, UniProt P54764). Nature of the test: Selectivity interaction (KinomeScan (DiscoverX)) EUB0000655a EPHA4. To be noted: at 10 µM.
The target in test [7] is T2, Inhibitor of nuclear factor kappa-B kinase subunit beta (Homo sapiens) (UniProt O14920).
T2 sequence (whole entry): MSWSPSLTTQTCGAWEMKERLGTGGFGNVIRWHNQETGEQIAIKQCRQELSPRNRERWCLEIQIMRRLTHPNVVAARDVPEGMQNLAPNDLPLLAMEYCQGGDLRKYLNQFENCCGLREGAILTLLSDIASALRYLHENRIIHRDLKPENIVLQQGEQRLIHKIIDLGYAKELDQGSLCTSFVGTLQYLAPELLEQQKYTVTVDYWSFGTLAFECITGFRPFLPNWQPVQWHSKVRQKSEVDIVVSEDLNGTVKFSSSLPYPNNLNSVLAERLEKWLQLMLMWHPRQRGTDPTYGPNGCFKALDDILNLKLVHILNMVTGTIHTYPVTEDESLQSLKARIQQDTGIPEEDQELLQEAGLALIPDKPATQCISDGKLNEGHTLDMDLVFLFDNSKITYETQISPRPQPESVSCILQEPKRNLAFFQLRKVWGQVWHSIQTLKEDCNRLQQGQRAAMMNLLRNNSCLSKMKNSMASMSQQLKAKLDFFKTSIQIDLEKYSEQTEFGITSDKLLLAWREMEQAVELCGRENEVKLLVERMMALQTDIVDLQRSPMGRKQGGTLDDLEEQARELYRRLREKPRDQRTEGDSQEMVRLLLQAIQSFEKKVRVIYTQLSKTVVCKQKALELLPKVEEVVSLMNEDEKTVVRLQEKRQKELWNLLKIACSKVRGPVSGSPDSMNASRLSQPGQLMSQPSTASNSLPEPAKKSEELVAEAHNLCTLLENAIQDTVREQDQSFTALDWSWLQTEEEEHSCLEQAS
Kind of test: Selectivity interaction (KinomeScan (DiscoverX)) EUB0000695a IKBKB. To be noted: at 100 nM.

For test [8], the target named is Serine/threonine-protein kinase PAK 1 (Homo sapiens) (UniProt Q13153). Kind of test: Selectivity interaction (Kinase screening (Nanosyn)) EUB0000604a PAK1.
Test [9] deals with Sodium-dependent dopamine transporter (Homo sapiens, UniProt Q01959). Kind of test: Selectivity interaction (Panel of non-epigenetic targets (kinases, GPCRs, ion channels, and transporters, Eurofins) ) EUB0000271b SLC6A3. The note with it: at 1 µM.
In test [10] the test system is Leucine-rich repeat serine/threonine-protein kinase 2 (Homo sapiens), Q5S007 [I2020T]. Kind of test: (§2) Selectivity interaction (Adapta Assay) EUB0001632a LRRK2. The note with it: at 10 µM.
For test [11], the target named is Leucine-rich repeat serine/threonine-protein kinase 2 (Homo sapiens, UniProt Q5S007). Described as §2. To be noted: at 10 µM.
Chain of Leucine-rich repeat serine/threonine-protein kinase 2 (Q5S007 whole entry): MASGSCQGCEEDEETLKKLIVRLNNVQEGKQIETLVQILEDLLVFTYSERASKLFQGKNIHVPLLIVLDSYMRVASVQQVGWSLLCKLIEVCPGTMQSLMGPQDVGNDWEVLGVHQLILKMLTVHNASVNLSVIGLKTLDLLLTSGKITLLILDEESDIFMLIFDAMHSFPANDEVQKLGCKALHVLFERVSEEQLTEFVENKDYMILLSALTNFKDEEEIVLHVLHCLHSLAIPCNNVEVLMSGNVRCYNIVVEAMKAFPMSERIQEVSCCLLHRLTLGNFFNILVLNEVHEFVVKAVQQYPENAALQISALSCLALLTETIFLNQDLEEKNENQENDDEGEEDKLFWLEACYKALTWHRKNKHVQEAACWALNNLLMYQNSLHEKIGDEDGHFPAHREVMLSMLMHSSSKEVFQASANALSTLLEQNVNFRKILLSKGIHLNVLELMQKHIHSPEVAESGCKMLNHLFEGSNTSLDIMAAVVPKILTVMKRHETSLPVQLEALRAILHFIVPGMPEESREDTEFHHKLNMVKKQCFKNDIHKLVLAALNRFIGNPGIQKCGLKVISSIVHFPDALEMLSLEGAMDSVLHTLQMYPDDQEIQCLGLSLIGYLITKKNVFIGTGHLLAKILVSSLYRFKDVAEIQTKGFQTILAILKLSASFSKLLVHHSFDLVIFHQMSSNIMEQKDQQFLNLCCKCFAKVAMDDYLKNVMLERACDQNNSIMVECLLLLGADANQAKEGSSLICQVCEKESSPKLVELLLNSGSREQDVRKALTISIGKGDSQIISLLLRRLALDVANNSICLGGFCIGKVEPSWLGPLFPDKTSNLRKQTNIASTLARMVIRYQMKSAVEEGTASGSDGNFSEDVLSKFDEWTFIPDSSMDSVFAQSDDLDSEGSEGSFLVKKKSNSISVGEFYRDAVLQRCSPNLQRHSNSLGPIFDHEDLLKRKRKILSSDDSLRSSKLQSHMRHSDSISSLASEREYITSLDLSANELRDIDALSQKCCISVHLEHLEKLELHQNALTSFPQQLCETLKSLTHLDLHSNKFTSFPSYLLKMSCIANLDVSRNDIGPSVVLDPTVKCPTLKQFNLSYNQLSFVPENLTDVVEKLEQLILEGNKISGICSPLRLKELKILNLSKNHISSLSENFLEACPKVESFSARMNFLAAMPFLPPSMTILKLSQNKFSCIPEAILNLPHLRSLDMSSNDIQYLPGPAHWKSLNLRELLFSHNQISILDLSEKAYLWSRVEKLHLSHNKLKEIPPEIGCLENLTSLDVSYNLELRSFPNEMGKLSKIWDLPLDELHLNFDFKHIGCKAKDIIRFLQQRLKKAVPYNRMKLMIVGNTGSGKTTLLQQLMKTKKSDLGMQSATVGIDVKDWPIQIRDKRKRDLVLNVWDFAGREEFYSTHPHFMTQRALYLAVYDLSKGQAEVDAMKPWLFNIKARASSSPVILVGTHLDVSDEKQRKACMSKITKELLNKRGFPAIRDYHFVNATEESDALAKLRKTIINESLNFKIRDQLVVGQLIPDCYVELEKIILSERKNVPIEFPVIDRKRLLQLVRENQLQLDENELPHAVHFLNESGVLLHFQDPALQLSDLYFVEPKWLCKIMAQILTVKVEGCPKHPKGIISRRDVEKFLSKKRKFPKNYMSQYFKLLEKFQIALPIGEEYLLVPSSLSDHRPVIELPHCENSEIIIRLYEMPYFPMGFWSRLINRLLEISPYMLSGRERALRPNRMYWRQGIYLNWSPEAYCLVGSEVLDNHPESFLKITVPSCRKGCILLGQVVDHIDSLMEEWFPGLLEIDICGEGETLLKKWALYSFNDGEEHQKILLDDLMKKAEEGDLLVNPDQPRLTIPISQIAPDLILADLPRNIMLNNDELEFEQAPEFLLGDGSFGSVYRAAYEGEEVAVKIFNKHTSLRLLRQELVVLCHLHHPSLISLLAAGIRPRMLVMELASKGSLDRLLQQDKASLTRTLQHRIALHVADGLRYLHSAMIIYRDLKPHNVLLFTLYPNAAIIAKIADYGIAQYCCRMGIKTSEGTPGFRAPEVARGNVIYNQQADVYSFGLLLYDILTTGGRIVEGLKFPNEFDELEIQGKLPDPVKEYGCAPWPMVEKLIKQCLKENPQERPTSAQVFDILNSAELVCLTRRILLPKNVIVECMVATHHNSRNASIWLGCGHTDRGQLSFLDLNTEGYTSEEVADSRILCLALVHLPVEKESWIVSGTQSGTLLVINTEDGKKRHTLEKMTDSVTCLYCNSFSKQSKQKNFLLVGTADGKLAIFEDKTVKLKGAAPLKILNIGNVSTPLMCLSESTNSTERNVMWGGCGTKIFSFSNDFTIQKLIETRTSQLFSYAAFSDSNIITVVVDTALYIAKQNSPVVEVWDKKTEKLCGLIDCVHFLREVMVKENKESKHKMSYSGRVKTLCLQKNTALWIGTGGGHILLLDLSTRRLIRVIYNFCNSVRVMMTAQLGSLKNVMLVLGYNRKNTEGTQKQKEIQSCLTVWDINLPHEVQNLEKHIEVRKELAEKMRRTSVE
The subject of test [12] is Leucine-rich repeat serine/threonine-protein kinase 2 (Homo sapiens), Q5S007 [G2019S]. Described as §2. The note with it: at 10 µM.
Test [13] concerns Leucine-rich repeat serine/threonine-protein kinase 2 (Homo sapiens), Q5S007 [R1441C]. Described as §2. To be noted: at 10 µM.
Chain of Leucine-rich repeat serine/threonine-protein kinase 2 (Homo sapiens), Q5S007 [R1441C] (Q5S007 whole entry R1441C): as the sequence (Q5S007 whole entry) above, with R1441C counted along it
Test [14] deals with Receptor tyrosine-protein kinase erbB-4 (Homo sapiens, UniProt Q15303). Nature of the test: Selectivity interaction (KinomeScan (DiscoverX)) EUB0001619a ERBB4. The note with it: at 1 µM.
Test [15] has as its target Angiopoietin-1 receptor (Homo sapiens) (UniProt Q02763). Nature of the test: Selectivity interaction (KinomeScan (DiscoverX)) EUB0000618a TEK. To be noted: at 10 µM.
Test [16] deals with Receptor tyrosine-protein kinase erbB-2 (Homo sapiens, UniProt P04626). Kind of test: Selectivity interaction (KinomeScan (DiscoverX)) EUB0000618a ERBB2. The note with it: at 10 µM.

Molecules are shown by their SMILES.

Chain of EML4-ALK (Homo sapiens) (Q9HC35 whole entry partner): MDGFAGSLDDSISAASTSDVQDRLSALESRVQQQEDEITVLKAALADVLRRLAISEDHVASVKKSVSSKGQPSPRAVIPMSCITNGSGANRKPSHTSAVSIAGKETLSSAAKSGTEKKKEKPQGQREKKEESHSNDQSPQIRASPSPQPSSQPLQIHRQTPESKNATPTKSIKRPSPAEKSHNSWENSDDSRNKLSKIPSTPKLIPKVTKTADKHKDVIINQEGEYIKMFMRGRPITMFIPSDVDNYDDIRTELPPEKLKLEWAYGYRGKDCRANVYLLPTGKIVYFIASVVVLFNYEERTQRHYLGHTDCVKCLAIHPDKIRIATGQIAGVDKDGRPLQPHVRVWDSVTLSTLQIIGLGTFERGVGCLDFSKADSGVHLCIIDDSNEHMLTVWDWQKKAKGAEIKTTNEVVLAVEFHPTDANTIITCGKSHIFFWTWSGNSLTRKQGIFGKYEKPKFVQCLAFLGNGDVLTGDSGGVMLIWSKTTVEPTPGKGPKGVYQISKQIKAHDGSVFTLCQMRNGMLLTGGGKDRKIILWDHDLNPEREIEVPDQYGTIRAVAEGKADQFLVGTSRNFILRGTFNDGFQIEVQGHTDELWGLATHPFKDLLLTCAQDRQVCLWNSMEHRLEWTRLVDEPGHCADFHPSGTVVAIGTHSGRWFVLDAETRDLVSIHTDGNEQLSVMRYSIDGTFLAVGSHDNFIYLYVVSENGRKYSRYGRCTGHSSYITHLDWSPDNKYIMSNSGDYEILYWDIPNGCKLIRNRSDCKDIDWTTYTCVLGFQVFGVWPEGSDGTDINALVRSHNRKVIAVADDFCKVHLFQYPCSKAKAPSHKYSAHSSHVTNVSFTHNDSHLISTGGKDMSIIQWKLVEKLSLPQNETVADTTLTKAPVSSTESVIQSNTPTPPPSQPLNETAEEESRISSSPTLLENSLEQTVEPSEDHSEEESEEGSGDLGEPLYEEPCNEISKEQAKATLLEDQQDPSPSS
Chain of EML4-ALK (Homo sapiens) (Q9UM73 19-1620 limits assumed): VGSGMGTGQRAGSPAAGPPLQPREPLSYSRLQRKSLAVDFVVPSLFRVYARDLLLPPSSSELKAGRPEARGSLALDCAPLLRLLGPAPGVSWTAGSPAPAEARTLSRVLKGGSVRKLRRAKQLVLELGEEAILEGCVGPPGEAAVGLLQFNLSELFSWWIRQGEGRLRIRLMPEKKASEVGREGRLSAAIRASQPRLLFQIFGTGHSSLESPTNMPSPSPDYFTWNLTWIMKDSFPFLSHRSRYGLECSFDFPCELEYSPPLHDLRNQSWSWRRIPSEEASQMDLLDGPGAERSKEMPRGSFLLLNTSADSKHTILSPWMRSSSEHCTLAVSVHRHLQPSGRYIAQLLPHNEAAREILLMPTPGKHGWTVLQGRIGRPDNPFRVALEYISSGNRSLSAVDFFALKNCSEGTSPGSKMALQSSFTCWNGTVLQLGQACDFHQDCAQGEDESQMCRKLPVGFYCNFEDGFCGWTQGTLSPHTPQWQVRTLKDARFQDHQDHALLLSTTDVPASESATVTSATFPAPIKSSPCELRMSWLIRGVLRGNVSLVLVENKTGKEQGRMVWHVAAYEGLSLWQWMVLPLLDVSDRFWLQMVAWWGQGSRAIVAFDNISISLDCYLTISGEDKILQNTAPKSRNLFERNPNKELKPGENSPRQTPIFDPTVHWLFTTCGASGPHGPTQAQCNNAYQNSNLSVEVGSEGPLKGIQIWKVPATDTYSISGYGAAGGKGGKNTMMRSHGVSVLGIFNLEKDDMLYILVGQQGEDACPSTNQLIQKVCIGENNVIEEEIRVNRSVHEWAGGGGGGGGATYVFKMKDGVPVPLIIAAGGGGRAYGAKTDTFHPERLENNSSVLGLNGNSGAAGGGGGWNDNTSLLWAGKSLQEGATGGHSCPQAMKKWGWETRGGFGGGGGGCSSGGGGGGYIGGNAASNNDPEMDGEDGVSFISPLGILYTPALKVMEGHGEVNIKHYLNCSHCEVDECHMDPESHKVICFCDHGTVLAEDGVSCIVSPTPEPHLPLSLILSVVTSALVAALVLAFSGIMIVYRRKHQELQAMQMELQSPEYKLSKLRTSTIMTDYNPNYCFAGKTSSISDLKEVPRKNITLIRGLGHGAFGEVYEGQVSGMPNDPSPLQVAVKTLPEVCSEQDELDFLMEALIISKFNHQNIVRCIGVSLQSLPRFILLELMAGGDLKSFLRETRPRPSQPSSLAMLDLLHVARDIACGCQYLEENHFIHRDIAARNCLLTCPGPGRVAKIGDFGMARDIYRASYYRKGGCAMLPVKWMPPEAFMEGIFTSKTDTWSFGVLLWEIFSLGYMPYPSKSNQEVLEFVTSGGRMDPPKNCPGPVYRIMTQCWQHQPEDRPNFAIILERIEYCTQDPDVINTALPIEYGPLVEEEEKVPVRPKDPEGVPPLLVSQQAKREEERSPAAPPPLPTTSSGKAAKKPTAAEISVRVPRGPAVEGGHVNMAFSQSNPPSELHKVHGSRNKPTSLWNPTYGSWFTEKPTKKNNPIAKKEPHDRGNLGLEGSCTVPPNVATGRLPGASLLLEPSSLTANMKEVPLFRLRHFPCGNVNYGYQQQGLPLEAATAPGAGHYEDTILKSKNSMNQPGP

`C=CC(=O)Nc1cccc(C(=O)Nc2ccc(Nc3cc(-c4[nH]c(SC)nc4C)ccn3)cc2)c1`: the % of control in test [1] came out at 80%; at EML4-ALK (Homo sapiens) (at 1 µM), 91%; on EML4-ALK (Homo sapiens) (at 5 µM), 89%; in test [2] (at 1 µM), 104%; in test [2] (at 5 µM), 106%. `Cc1cc([C@@H](C)Nc2ccccc2C(=O)O)c2nc(N3CCOCC3)cc(=O)n2c1` [AZD-6482] yielded a % of control in test [3] of 100%. With `CCN(CC)CCCCNc1ncc2cc(-c3cc(OC)cc(OC)c3)c(NC(=O)NC(C)(C)C)nc2n1`, in test [4], the % of control was determined as 100%. As to `Nc1cnc(N2CCc3cc(S(=O)(=O)Nc4c(F)cc(Cl)cc4F)cc(N4CCCC4=O)c32)nc1` [TP-020n], the % of control in [5] was 53%. In test [6], `COc1cc(Nc2nc(C)cc(-c3cnn4nc(OC)ccc34)n2)cc(C(F)(F)F)c1` gave a % of control of 100%. `CN(C)CCOc1ccc(-c2nc(-c3ccncc3)c(-c3ccc4c(c3)CC/C4=N\O)[nH]2)cc1` registered a % of control at Ephrin type-A receptor 4 of 100%. As to `Cc1cc(F)c(C(=O)Nc2cccc(-c3nncn3C(C)C)n2)cc1-n1cnc(C2CC2)c1`, the % of control in test [7] was determined as 100%. In turn, `Cc1cnc(Nc2ccc(F)cc2Cl)nc1-c1c[nH]c(C(=O)N[C@H](CO)c2cccc(Cl)c2)c1` had a % of inhibition in test [8] of 3%. With `Cc1cc(C)cc([C@@H]2c3cc(C)ccc3NC(=O)CN2C(=O)c2ccc(Br)s2)c1`, in [9], the % of inhibition came out at 6%. Turning to `Cn1cc(-n2cnc3c(NCc4nc5cc(Cl)c(Cl)cc5[nH]4)nc(N4CCOCC4)nc32)cn1`, the % of inhibition was found to be 100% in test [10], 18.9% in test [11], 23.9% in test [12] and 96.1% in test [13]. In test [14], `N#Cc1cccc(-c2c[nH]c3ncnc(N4CCOCC4)c23)c1` displayed a % of control of 100%. As to `O[C@H]1CC[C@H](Nc2ncc3nc(Nc4c(F)cc(F)cc4F)n([C@H]4CCOC4)c3n2)CC1`, the % of control in [15] was 100%; in [16] it was 52%.
